According to US20110190336A1, “AZABENZIMIDAZOLONES” (CARA THERAPEUTICS, INC., priority 2008, published 2011):

Target: T1, human DP2 receptor (Homo sapiens, UniProt Q9Y5Y4)
T1 construct: expressed in transfected cells; host or cells: CHO-K1 FLP-In (Invitrogen, catalog no. R758-07), stably transfected
T1 sequence (Q9Y5Y4 1-395): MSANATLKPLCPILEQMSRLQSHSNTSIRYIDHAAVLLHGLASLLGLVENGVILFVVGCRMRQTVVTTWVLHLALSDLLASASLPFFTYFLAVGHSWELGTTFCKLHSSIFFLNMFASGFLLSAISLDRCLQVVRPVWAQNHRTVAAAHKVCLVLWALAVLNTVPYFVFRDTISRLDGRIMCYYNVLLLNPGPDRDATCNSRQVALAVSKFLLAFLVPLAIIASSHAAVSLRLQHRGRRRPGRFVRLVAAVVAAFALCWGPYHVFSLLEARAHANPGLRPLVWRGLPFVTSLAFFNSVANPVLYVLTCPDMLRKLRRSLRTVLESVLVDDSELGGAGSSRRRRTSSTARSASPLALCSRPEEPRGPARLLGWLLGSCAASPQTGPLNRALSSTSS
Assay: Prostaglandin D2 binding inhibition assay (scintillation proximity assay, 3H PGD2, membranes of transfected CHO cells)
Conditions: SPA, 5.5 nM 3H PGD2, CHO-K1 FLP-In human DP2 membranes; upper limit determinable 30 μM; read-out: IC50 ranges for inhibition of PGD2 binding to human DP2
Protocol: The ability of compounds to inhibit binding of prostaglandin D2 (PGD2) to the human DP2 receptor was measured using a scintillation proximity assay (SPA). Chinese Hamster Ovary FLP-In cell lines (CHO-K1 FLP-In, Invitrogen, catalog no. R758-07) were stably transfected with the human DP2 gene (Genebank: AY507142). Cell lines were grown in suspension in EX-CELL 302 CHO Serum-free medium (Sigma, catalog no. 14324C) supplemented with 1% Fetal Bovine Serum (Invitrogen no. 10099-141), 2 mM L-glutamine (Invitrogen, catalog no. 25030-081) and 0.5 mg/ml Hygromycin B (Invitrogen, catalog no. 10687-010). Cells were collected by centrifugation in a Beckman Coulter Allegra X-12R centrifuge at 150×g for 5 minutes at room temperature.
Membranes from transfected cells were isolated for binding assays. Cell pellets containing approximately 2×10^9 cells were resuspended in 35 ml of cold membrane homogenization buffer (10 mM Tris (Sigma, catalog no. T2663), 1 mM EDTA (Fluka BioChemika no. 03690), and 70 μl of protease inhibitor cocktail (Sigma, catalog no. P8340)). Cells were homogenized with 30 strokes of a dounce homogenizer (Kontes, catalog no. 885303-0040), and the solution centrifuged at 200×g for 10 minutes. The supernatant was transferred to a 50 ml Oakridge tube (Beckman, catalog no. 357000) and centrifuged in a Beckman Coulter Avanti J-26×PI centrifuge with a JA30.50 rotor at 81,000×g for 1 hour at 15° C. The pellet was resuspended in membrane storage buffer (50 mM Tris (Sigma, catalog no. T2663), 2.5 mM EDTA (Fluka BioChemika no. 03690), 5 mM magnesium chloride (Sigma, catalog no. M1028), 100 mg/ml sucrose (Sigma, catalog no. 50389) and a 1:500 dilution of protease inhibitor cocktail (Sigma, catalog no. P8340)) and the total protein was quantitated using a BCA protein measurement kit (Pierce, catalog no. 23225). Aliquots were frozen at −80° C. until used. Compounds were tested for their ability to inhibit PGD2 binding to the purified membranes. 5 μg of the purified membranes, 0.25 mg of wheat germ agglutinin PVT SPA beads (GE Healthcare, catalog no. RPNQ0060) and 5.5 nM of ^3H PGD2 (PerkinElmer, catalog no. NET-616) were mixed in assay buffer ((50 mM Tris (Sigma, catalog no. T2663), 10 mM magnesium chloride (Sigma, catalog no. M1028), 100 mM sodium chloride (Sigma, catalog no. S6546) and 0.1% bovine serum albumin (Sigma, catalog no. A2153)). Using a Multidrop bulk dispenser, 75 μl of the assay mixture was dispensed in Optiplates (PerkinElmer, catalog no. 6007299) containing the compounds to be tested. After a 60 minute incubation period at room temperature, the plates were read on a PerkinElmer Topcount NXT HTS, and individual wells were quantitated as counts per minute (CPM). Data were expressed as a percent of the difference between the maximum and minimum responses. IC50 values (the concentration of compound producing 50% of the maximal response) were determined using a two-parameter non-linear regression algorithm analyzed using CambridgeSoft Bioassay software. Table 2 gives the range of IC50 values for claimed compounds in the binding assay.

IC50 [µM]	Structure (SMILES)
10 to 30	Cc1ccc(CS(=O)(=O)N2CCC(n3c(=O)n(CC(=O)O)c4cccnc43)CC2)cc1 [Compound 56, 2-(3-(1-(4-methylbenzylsulfonyl)piperidin-4-yl)-2-oxo-2,3-dihydro-1H-imidazo[4,5-b]pyridin-1-yl)acetic acid]
1 to 10	O=C(O)Cn1c(=O)n(C2CCN(S(=O)(=O)c3ccc(Cl)cc3)CC2)c2ncccc21 [Compound 57, 2-(3-(1-(4-chlorophenylsulfonyl)piperidin-4-yl)-2-oxo-2,3-dihydro-1H-imidazo[4,5-b]pyridin-1-yl)acetic acid]
1 to 10	N#Cc1ccc(S(=O)(=O)N2CCC(n3c(=O)n(CC(=O)O)c4cccnc43)CC2)cc1 [Compound 61, 2-(3-(1-(4-cyanophenylsulfonyl)piperidin-4-yl)-2-oxo-2,3-dihydro-1H-imidazo[4,5-b]pyridin-1-yl)acetic acid]
1 to 10	CS(=O)(=O)c1cccc(S(=O)(=O)N2CCC(n3c(=O)n(CC(=O)O)c4cccnc43)CC2)c1 [Compound 66, 2-(3-(1-(3-(methylsulfonyl)phenyl-sulfonyl)piperidin-4-yl)-2-oxo-2,3-dihydro-1H-imidazo[4,5-b]pyridin-1-yl)acetic acid]
< 1	O=C(O)Cn1c(=O)n(C2CCN(S(=O)(=O)c3ccccc3[N+](=O)[O-])CC2)c2ncccc21 [Compound 67, 2-(3-(1-(2-nitrophenylsulfonyl)piperidin-4-yl)-2-oxo-2,3-dihydro-1H-imidazo[4,5-b]pyridin-1-yl)acetic acid]
10 to 30	O=C(O)Cn1c(=O)n(C2CCN(S(=O)(=O)c3cccnc3)CC2)c2ncccc21 [Compound 68, 2-(2-oxo-3-(1-(pyridin-3-ylsulfonyl)piperidin-4-yl)-2,3-dihydro-1H-imidazo[4,5-b]pyridin-1-yl)acetic acid]
1 to 10	O=C(O)Cn1c(=O)n(C2CCN(S(=O)(=O)c3ccc(Cl)cc3F)CC2)c2ncc(F)cc21 [Compound 71, 2-(3-(1-(4-chloro-2-fluorophenyl-sulfonyl)piperidin-4-yl)-6-fluoro-2-oxo-2,3-dihydro-1H-imidazo[4,5-b]pyridin-1-yl)acetic acid]
1 to 10	O=C(O)Cn1c(=O)n(C2CCN(S(=O)(=O)c3cccc4cccnc34)CC2)c2ncc(F)cc21 [Compound 72, 2-(6-fluoro-2-oxo-3-(1-(quinolin-8-ylsulfonyl)piperidin-4-yl)-2,3-dihydro-1H-imidazo[4,5-b]pyridin-1-yl)acetic acid]
1 to 10	Cc1cc(S(=O)(=O)N2CCC(n3c(=O)n(CC(=O)O)c4cccnc43)CC2)c(C)s1 [Compound 76, 2-(3-(1-(2,5-dimethylthiophen-3-ylsulfonyl)piperidin-4-yl)-2-oxo-2,3-dihydro-1H-imidazo[4,5-b]pyridin-1-yl)acetic acid]

The remaining lines, values behind:

Structure (SMILES)	IC50 [µM]
Cc1noc(C)c1S(=O)(=O)N1CCC(n2c(=O)n(CC(=O)O)c3cccnc32)CC1 [Compound 54, 2-(3-(1-(3,5-dimethylisoxazol-4-ylsulfonyl)piperidin-4-yl)-2-oxo-2,3-dihydro-1H-imidazo[4,5-b]pyridin-1-yl)acetic acid]	> 30
O=C(O)Cn1c(=O)n(C2CCN(S(=O)(=O)c3ccc(F)cc3)CC2)c2ncccc21 [Compound 55, 2-(3-(1-(4-fluorophenylsulfonyl)piperidin-4-yl)-2-oxo-2,3-dihydro-1H-imidazo[4,5-b]pyridin-1-yl)acetic acid]	1 to 10
O=C(O)Cn1c(=O)n(C2CCN(S(=O)(=O)c3ccccc3Cl)CC2)c2ncccc21 [Compound 58, 2-(3-(1-(2-chlorophenylsulfonyl)piperidin-4-yl)-2-oxo-2,3-dihydro-1H-imidazo[4,5-b]pyridin-1-yl)acetic acid]	< 1
O=C(O)Cn1c(=O)n(C2CCN(S(=O)(=O)c3ccc4ccccc4c3)CC2)c2ncccc21 [Compound 59, 2-(3-(1-(naphthalen-2-ylsulfonyl)piperidin-4-yl)-2-oxo-2,3-dihydro-1H-imidazo[4,5-b]pyridin-1-yl)acetic acid]	1 to 10
O=C(O)Cn1c(=O)n(C2CCN(S(=O)(=O)c3ccsc3)CC2)c2ncccc21 [Compound 60, 2-(2-oxo-3-(1-(thiophen-3-ylsulfonyl)piperidin-4-yl)-2,3-dihydro-1H-imidazo[4,5-b]pyridin-1-yl)acetic acid]	1 to 10
Cc1cccc(CS(=O)(=O)N2CCC(n3c(=O)n(CC(=O)O)c4cccnc43)CC2)c1 [Compound 62, 2-(3-(1-(3-methylbenzylsulfonyl)piperidin-4-yl)-2-oxo-2,3-dihydro-1H-imidazo[4,5-b]pyridin-1-yl)acetic acid]	1 to 10
O=C(O)Cn1c(=O)n(C2CCN(S(=O)(=O)Cc3ccc(F)cc3)CC2)c2ncccc21 [Compound 64, 2-(3-(1-(4-fluorobenzylsulfonyl)piperidin-4-yl)-2-oxo-2,3-dihydro-1H-imidazo[4,5-b]pyridin-1-yl)acetic acid]	< 1
CC(C)(C)c1ccc(S(=O)(=O)N2CCC(n3c(=O)n(CC(=O)O)c4cccnc43)CC2)cc1 [Compound 65, 2-(3-(1-(4-tert-butylphenylsulfonyl)piperidin-4-yl)-2-oxo-2,3-dihydro-1H-imidazo[4,5-b]pyridin-1-yl)acetic acid]	1 to 10
N#Cc1cccc(S(=O)(=O)N2CCC(n3c(=O)n(CC(=O)O)c4cccnc43)CC2)c1 [Compound 69, 2-(3-(1-(3-cyanophenylsuIfonyl)piperidin-4-yl)-2-oxo-2,3-dihydro-1H-imidazo[4,5-b]pyridin-1-yl)acetic acid]	1 to 10
N#Cc1ccccc1S(=O)(=O)N1CCC(n2c(=O)n(CC(=O)O)c3cccnc32)CC1 [Compound 70, 2-(3-(1-(2-cyanophenylsulfonyl)piperidin-4-yl)-2-oxo-2,3-dihydro-1H-imidazo[4,5-b]pyridin-1-yl)acetic acid]	< 1
CC(C)Oc1ccc(S(=O)(=O)N2CCC(n3c(=O)n(CC(=O)O)c4cc(F)cnc43)CC2)cc1 [Compound 73, 2-(6-fluoro-3-(1-(4-isopropoxyphenyl-sulfonyl)piperidin-4-yl)-2-oxo-2,3-dihydro-1H-imidazo[4,5-b]pyridin-1-yl)acetic acid]	10 to 30
CS(=O)(=O)c1ccccc1S(=O)(=O)N1CCC(n2c(=O)n(CC(=O)O)c3cc(F)cnc32)CC1 [Compound 74, 2-(6-fluoro-3-(1-(2-(methylsulfonyl)phenylsulfonyl)piperidin-4-yl)-2-oxo-2,3-dihydro-1H-imidazo[4,5-b]pyridin-1-yl)acetic acid]	< 1
CC(C)Oc1ccc(S(=O)(=O)N2CCC(n3c(=O)n(CC(=O)O)c4cccnc43)CC2)cc1 [Compound 75, 2-(3-(1-(4-isopropoxyphenylsulfonyl)piperidin-4-yl)-2-oxo-2,3-dihydro-1H-imidazo[4,5-b]pyridin-1-yl)acetic acid]	> 30
O=C(O)Cn1c(=O)n(C2CCN(S(=O)(=O)c3ccc(Oc4ccccc4)cc3)CC2)c2ncccc21 [Compound 77, 2-(2-oxo-3-(1-(4-phenoxyphenyl-sulfonyl)piperidin-4-yl)-2,3-dihydro-1H-imidazo[4,5-b]pyridin-1-yl)acetic acid]	1 to 10
